# ± gives the standard deviation of the averaged measurements.
# Legend:
# ST8814 [1] = experiment: drug sensitivity score (DSS, CellTox-Green cytotoxicity, 72 h) (DSS (dimensionless)); higher = more cytotoxic; extreme values may be limits of the assay
# Outline: (§1)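 For 72 h at 37 °C, MPNST cell lines and primary human Schwann cells were exposed in 384-well plates to five 10-fold compound dilutions. CellTox-Green, added before seeding at a final 1:1000 dilution, gave fluorescence from DNA released by disrupted cells. Signals were scaled to vehicle and positive-control wells, cultures failing plate quality control were left out, and four-parameter logistic fits were applied. Relative IC50 and drug sensitivity score were derived from the fits, with IC50 censored at the top concentration.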
# [2] = test system: HSC1 (primary human Schwann cells); experiment: as above
# Outline: as §1
# [3] = test system: HSC2 (primary human Schwann cells); experiment: as above
# Outline: as §1
# HS-PSS [4] = experiment: as above
# Outline: as §1
# STS26T [5] = experiment: as above
# Outline: as §1
# S1507-2 [6] = experiment: as above
# Outline: as §1
# ST8814 [7] = experiment: drug sensitivity score (DSS, CellTiter-Glo viability, 72 h) (DSS (dimensionless)); higher = more sensitive; extreme values may be limits of the assay
# Outline: (§2)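 MPNST cell lines and primary human Schwann cells were seeded at 750–1000 cells per well into 384-well plates preprinted with each compound at five concentrations in 10-fold steps, then incubated 72 h at 37 °C, 5% CO2. CellTiter-Glo ATP luminescence gave viability, scaled between vehicle and positive-control wells, with duplicates averaged where present. Curves were fitted with a four-parameter logistic model. Percent inhibition refers to the top concentration, while drug sensitivity score and relative IC50, censored at the top concentration, come from these fits.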
# [8] = test system: HSC1 (primary human Schwann cells); experiment: as above
# Outline: as §2
# HS-Sch-2 [9] = experiment: as above
# Outline: as §2
# [10] = test system: HSC2 (primary human Schwann cells); experiment: as above
# Outline: as §2
# HS-PSS [11] = experiment: as above
# Outline: as §2
# YST-1 [12] = experiment: as above
# Outline: as §2
# STS26T [13] = experiment: as above
# Outline: as §2
# S462 [14] = experiment: as above
# Outline: as §2
# S1507-2 [15] = experiment: as above
# Outline: as §2
# ST8814 [16] = experiment: % inhibition of CellTiter-Glo viability at highest tested concentration (72 h), relative to DMSO and benzethonium chloride controls; higher = more inhibition
# Outline: as §2
# [17] = test system: HSC1 (primary human Schwann cells); experiment: as above
# Outline: as §2
# HS-Sch-2 [18] = experiment: as above
# Outline: as §2
# [19] = test system: HSC2 (primary human Schwann cells); experiment: as above
# Outline: as §2
# HS-PSS [20] = experiment: as above
# Outline: as §2
# YST-1 [21] = experiment: as above
# Outline: as §2
# STS26T [22] = experiment: as above
# Outline: as §2
# S462 [23] = experiment: as above
# Outline: as §2
# S1507-2 [24] = experiment: as above
# Outline: as §2
Structure (SMILES),drug sensitivity score (ST8814 [1]),drug sensitivity score [2],drug sensitivity score [3],drug sensitivity score (HS-PSS [4]),drug sensitivity score (STS26T [5]),drug sensitivity score (S1507-2 [6]),drug sensitivity score (ST8814 [7]),drug sensitivity score [8],drug sensitivity score (HS-Sch-2 [9]),drug sensitivity score [10],drug sensitivity score (HS-PSS [11]),drug sensitivity score (YST-1 [12]),drug sensitivity score (STS26T [13]),drug sensitivity score (S462 [14]),drug sensitivity score (S1507-2 [15]),% inhibition (ST8814 [16]) [%],% inhibition [17] [%],% inhibition (HS-Sch-2 [18]) [%],% inhibition [19] [%],% inhibition (HS-PSS [20]) [%],% inhibition (YST-1 [21]) [%],% inhibition (STS26T [22]) [%],% inhibition (S462 [23]) [%],% inhibition (S1507-2 [24]) [%]
COc1cc2c(cc1O)CC[C@@H]1[C@@H]2CC[C@]2(C)[C@@H](O)CC[C@@H]12 [2-methoxyestradiol] (max concentration tested 10000 nM),5.07,0.832,3.98,0,11.6,5.59 ± 1,6.11,7.26,10.8,7.04,1.11,6.88,12.1,12.8 ± 0.78,6.89 ± 0.4,91.9,66.2,84.4,66.6,26.6,75.8,99.8,98.15 ± 0.87,82 ± 3.8
CC/C(=C(\c1ccc(O)cc1)c1ccc(OCCN(C)C)cc1)c1ccccc1 [4-hydroxytamoxifen] (max concentration tested 10000 nM),4.88,1.81,7.53,3.7,1.86,0.592 ± 0.84,5.33,5.78,7.34,5.65,6.38,2.94,3.45,3.82 ± 1.3,5.41 ± 1.5,75.7,72.5,93.4,82.5,88.4,32.7,53,46.1 ± 9.7,55.9 ± 8.7
Nc1ncnc2c1nc(N)n2[C@@H]1O[C@H](CO)[C@@H](O)[C@H]1O [8-amino-adenosine] (max concentration tested 50000 nM),14.7,4.02,4.74,3.6,16.9,12.1 ± 6.4,19.6,18.1,19.3,15.6,17.9,22.8,19.9,20.2 ± 0.77,21.3 ± 0.37,98.4,98,102,96.7,101,102,100,99.7 ± 0.63,99.405 ± 0.063
Nc1ncnc2c1nc(Cl)n2[C@@H]1O[C@H](CO)[C@@H](O)[C@H]1O [8-chloro-adenosine] (max concentration tested 50000 nM),0.449,0,0,0,6.31,1.46 ± 1.7,9.48,9.38,11.1,9.83,5.54,12.9,12.3,14.21 ± 0.085,12.4 ± 2.1,54.5,73.8,80,73.7,55.6,88.6,86.8,82.1 ± 4.6,74 ± 0.56
COc1cc(O)c2c(c1)/C=C/C[C@H](O)[C@H](O)C(=O)/C=C\C[C@H](C)OC2=O [(5Z)-7-Oxozeaenol] (max concentration tested 10000 nM),0.979,0.659,1.01,0,2.39,2.79 ± 3,7.1,6.52,2.24,7.92,1.02,1.67,6.93,6.71 ± 1.1,3.4 ± 0.83,70.6,73.1,39.8,76.9,29.8,26.6,68.6,74.1 ± 6.8,51.8 ± 16
COc1ccc(S(=O)(=O)Nc2cccnc2Nc2ccc(O)cc2)cc1 [ABT-751] (max concentration tested 10000 nM),13.5,7.1,12.9,0,19,11.9 ± 0.12,15.1,12.3,14.3,13.5,3.98,10.8,16.3,16.8 ± 0.83,14 ± 0.54,86,76.6,87.8,86,69,83.1,94.9,96.52 ± 0.26,79.7 ± 4.9
CNC(=O)c1ccc(N2C(=S)N(c3cnc(C#N)c(C(F)(F)F)c3)C(=O)C23CCC3)cc1F [ARN 509] (max concentration tested 10000 nM),0,0,0,0,0.407,0.0953 ± 0.14,0,0,0,0,2.56,0,0,0,0,9.08,-4.96,3.75,-11.5,11.9,5.31,2.87,5.15 ± 0.46,1.5 ± 14
O=C(Nc1c[nH]nc1-c1nc2ccc(CN3CCOCC3)cc2[nH]1)NC1CC1 [AT9283] (max concentration tested 1000 nM),15.5,4.98,5.2,0,8.27,8.28 ± 1.4,13,10.7,4.99,10.5,3.34,6.27,5.9,8.755 ± 0.034,10.9 ± 1.9,92.4,83.1,93.4,83,40.9,67.4,66.9,84.48 ± 0.23,95.6 ± 4.4
Cc1cc2c(C(C)C)c(O)c(O)c(C=O)c2c(O)c1-c1c(C)cc2c(C(C)C)c(O)c(O)c(C=O)c2c1O [AT 101] (max concentration tested 100000 nM),0.0013,4.09,0,2.34,0,0,12.6,16.2,15.1,20.2,9.43,15.2,11.8,16 ± 1.1,8.69 ± 1.2,95.4,94.7,101,93.6,101,101,96.6,95.03 ± 0.8,95.6 ± 1.6
CN[C@@H](C)C(=O)N[C@H]1CN(C(=O)CC(C)C)CC[C@H]2CC[C@@H](C(=O)NC(c3ccccc3)c3ccccc3)N2C1=O [AT-406] (max concentration tested 10000 nM),0,0,0,0,22.4,13.1 ± 11,0,0,0,0,0.14,0,12.4,0,0.378 ± 0.28,3.57,-7.18,10.6,-4.84,14.3,8.35,56,3.84 ± 5.2,14.97 ± 0.11
CC[C@H](CC#N)OC(=O)N[C@@H](C)c1cccc(NC(=O)Nc2ccc(-c3cnco3)c(OC)c2)c1 [AVN944] (max concentration tested 10000 nM),7.26,0,0,0,0.427,0,11.4,18.7,8.71,20,12.5,16,12.2,14.5 ± 1.5,8.48 ± 0.44,78.7,71.2,60.8,76.8,69.4,89.7,74.3,81.8 ± 2.8,54.6 ± 5.9
COc1cc(OC2CCN(C)CC2)ccc1Nc1ncc2c(n1)n(C1CCCC1)c(=O)n2C [AZ 3146] (max concentration tested 10000 nM),5.94,0,0.0952,1.72,4.54,2.07 ± 1.8,6.15,2.64,8.57,2.78,6.35,6.64,6.58,9.91 ± 0.79,5.68 ± 1.6,92.4,53.1,95.6,54.7,75.4,68.7,62.1,82.8 ± 4.9,87.86 ± 0.87
CCN(CCO)CCCOc1ccc2c(Nc3cc(CC(=O)Nc4cccc(F)c4)[nH]n3)ncnc2c1 [AZD1152-HQPA] (max concentration tested 1000 nM),4.15,0,0.941,0,3.61,0,4.68,7.19,0,8.05,0.81,11.2,4.07,8.6 ± 0.56,3.8464 ± 7.1e-05,51.2,34.7,0.66,39.6,9.86,40.6,41.2,35.8 ± 1.1,37.8 ± 7.3
